In brackets after ≈: the same amount, converted by molar mass.

The test system of this assay is Mycobacterium tuberculosis. Kind of assay: Antimycobacterial activity against miltidrug-resistant Mycobacterium tuberculosis. Format: functional.

As usually defined, the MIC is the lowest concentration that inhibits growth of the organism. Read a low MIC as inhibition by little substance. Regarding `COC(=O)/C=C/C(=O)c1ccc(OC)cc1`, the MIC lay in the range of 0.25 to 1 µg/mL (≈ 1.14 to 4.54 µM).

(Values after ChEMBL document CHEMBL4330134, “Design, synthesis, and bioevaluation of a novel class of (E)-4-oxo-crotonamide derivatives as potent antituberculosis agents” (Bioorg Med Chem Lett, 2019).)
